Where two headings read alike, the source gives them in different places.

Data set [1] is described as follows: Liver microsomal stability. Type of data set: in vitro ADME. As to conditions: pH 7.4, 1 μM compound, 0.5 mg/mL liver microsome protein. How it is done: The test compound stock solution was prepared by weighing 1.07 mg and dissolving in 0.261 mL of DMSO to achieve the concentration of 10 mM. Working solution of the test compound was prepared by diluting stock solution using DMSO to yield the concentration of 300 μM.
The assay was carried out in 96-well microtiter plates. In each well, the reaction mixture (25 μL) contained the test compound at the final concentration of 1 μM, 0.5 mg/mL liver microsome protein, and 1 mM NADPH in 100 mM potassium phosphate, pH 7.4 buffer with 3.3 mM MgCl2. The mixtures were incubated in duplicate at 37° C. for 0, 15, 30 or 60 minutes, and 150 μL of quench solution (acetonitrile with 0.1% formic acid) with internal standard (bucetin for positive ESI mode) was added into each well of reaction to terminate the reaction. The plates were then sealed and centrifuged at 4° C. for 15 minutes at 4000 rpm. The resulting supernatant was transferred to fresh plates for LC-MS/MS analysis of the test compounds. Verapamil was used as the positive control to validate the assay system.
All samples were analyzed with LC-MS/MS using an AB Sciex API 4000 instrument, coupled to a Shimadzu LC-20AD LC Pump system. Analytical samples were separated using a Waters Atlantis T3 dC18 reverse phase HPLC column (20 mm×2.1 mm) at a flow rate of 0.5 mL/min. The mobile phase consisted of 0.1% formic acid in water (solvent A) and 0.1% formic acid in acetonitrile (solvent B).
The extent of metabolism was calculated based on the disappearance of the test compound, compared to its initial concentration. The initial rates of clearance of test compounds were calculated using linear regression plot of semi-log % remaining of compounds versus time. The elimination rate constant (equals to negative slope) of the linear regression plot was then used to determine t112 and the intrinsic clearance (CLInt) using the following formula: k=−slope t1/2=0.693/k CLint=k/Cprotein
Where Cprotein (mg/mL) is the microsomal protein concentration in the incubation system.
In general terms: Microsomes from liver hold many membrane-bound enzymes, among them those of drug oxidation.

Data set [2] can be described thus: Mouse pharmacokinetic study. As to conditions: single oral dose (dose level not given), plasma. It is filed as in vivo. How it is done:
To prepare 1 L of the vehicle solution (0.5% CMC and 1.0% Tween 80), 10 g of Tween 80 was mixed with 985 mL of water into a 1 L bottle. The mixture was stirred until Tween 80 was completely dissolved. With continued stirring, 5 g of CMC was very slowly sprinkled into the solution. Stirring was continued until all CMC was dissolved, which might take several hr. The resulting vehicle solution was stored at 4° C.
The compound was suspended in the vehicle solution and the mice were orally administrated with a single dose of the compound at the selected dose level. The blood samples were collected according to the defined time table into tubes containing K2-EDTA, followed by gentle mixing to assure distribution of the anti-coagulant. Immediately after the blood sample was collected and mixed, it was placed on ice. The samples were then centrifuged at 4° C. for 10 minutes at 5,000 RPM. The plasma was harvested into pre-labeled tubes and stored at −80° C. until analyzed by LC-MS/MS.

The target in data set [3] is T1, Ba/F3 cell-derived tumors with the EML4-ALK G1202R fusion (Homo sapiens, UniProt Q9UM73, G1202R).
T1 sequence (Q9UM73 with tags, fused parts or gaps G1202R): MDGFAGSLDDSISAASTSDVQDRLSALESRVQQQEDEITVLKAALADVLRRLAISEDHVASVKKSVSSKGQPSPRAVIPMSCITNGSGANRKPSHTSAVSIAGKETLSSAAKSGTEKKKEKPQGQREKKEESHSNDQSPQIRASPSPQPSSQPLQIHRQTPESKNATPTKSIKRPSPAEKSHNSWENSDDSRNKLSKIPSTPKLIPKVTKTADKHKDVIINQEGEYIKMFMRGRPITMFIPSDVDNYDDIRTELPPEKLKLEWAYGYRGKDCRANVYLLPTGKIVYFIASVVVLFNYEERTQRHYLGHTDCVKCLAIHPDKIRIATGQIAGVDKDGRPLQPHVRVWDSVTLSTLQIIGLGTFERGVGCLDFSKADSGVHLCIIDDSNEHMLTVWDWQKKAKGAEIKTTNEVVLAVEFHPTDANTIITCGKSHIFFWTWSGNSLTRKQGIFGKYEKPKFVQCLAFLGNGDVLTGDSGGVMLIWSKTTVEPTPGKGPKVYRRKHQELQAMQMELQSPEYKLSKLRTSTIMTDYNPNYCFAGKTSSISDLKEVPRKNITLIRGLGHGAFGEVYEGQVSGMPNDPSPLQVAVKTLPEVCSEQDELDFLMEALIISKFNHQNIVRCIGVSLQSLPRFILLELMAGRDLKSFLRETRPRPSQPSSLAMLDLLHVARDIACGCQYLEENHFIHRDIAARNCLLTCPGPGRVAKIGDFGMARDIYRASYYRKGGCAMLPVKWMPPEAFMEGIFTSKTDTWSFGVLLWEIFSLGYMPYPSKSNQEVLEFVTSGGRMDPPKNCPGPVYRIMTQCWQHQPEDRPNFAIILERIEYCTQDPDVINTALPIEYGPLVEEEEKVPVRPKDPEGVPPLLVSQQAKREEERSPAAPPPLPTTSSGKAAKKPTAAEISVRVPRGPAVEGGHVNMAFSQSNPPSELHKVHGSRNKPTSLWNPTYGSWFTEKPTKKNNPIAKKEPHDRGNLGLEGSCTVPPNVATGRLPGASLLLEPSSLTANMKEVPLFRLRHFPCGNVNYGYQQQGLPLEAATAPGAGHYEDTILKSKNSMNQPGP
Conditions: after 7 days of treatment.

A further data set concerns the target KM12 (TPM3-TRKA) (Homo sapiens, UniProt P04629). The experiment in a line: Cell proliferation assay (CellTiter-Glo). In general terms: In ATP-based viability assays light output follows the ATP content of the culture.
A further data set concerns the target KG-1 cell (OP2-FGFR1) (Homo sapiens, UniProt P11362). As to the kind of experiment: Cell proliferation assay (CellTiter-Glo).
Where [4] appears, read: female, mouse, liver microsomes.

Sequence of KM12 (TPM3-TRKA) (P04629 with tags, fused parts or gaps): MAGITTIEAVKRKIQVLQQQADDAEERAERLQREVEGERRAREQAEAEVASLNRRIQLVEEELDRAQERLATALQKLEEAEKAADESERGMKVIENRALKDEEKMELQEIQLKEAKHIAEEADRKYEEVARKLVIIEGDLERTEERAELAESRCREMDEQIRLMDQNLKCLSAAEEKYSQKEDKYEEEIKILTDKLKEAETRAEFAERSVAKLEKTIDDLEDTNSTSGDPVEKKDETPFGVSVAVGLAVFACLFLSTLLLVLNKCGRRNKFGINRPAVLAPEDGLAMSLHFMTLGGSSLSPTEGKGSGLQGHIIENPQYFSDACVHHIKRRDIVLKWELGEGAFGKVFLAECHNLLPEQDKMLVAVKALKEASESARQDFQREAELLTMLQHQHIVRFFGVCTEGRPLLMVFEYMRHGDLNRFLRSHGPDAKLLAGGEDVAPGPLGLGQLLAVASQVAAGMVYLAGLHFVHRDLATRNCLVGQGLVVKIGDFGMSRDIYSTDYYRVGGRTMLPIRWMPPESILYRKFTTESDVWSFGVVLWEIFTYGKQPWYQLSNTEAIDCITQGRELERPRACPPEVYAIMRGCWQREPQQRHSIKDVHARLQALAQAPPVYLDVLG
Sequence of KG-1 cell (OP2-FGFR1) (P11362 456-822 limits assumed): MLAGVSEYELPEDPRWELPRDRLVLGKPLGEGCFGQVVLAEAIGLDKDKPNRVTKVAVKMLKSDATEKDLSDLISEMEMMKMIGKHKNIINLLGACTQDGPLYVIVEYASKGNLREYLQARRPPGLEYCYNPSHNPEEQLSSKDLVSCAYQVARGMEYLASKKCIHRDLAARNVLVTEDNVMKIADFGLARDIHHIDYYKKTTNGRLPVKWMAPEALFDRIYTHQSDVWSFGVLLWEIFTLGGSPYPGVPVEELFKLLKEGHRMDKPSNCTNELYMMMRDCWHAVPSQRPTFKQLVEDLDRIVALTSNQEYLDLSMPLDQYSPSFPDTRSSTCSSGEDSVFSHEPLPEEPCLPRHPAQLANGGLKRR

As for `CC1(C)COc2ccc(F)cc2CN2c3nc4c(cnn4cc3OC[C@H]2C(F)F)C(=O)N1` [Compound 1, (4S)-4-(Difluoromethyl)-8-fluoro-13,13-dimethyl-3,4,13,14-tetrahydro-6H-18,1-(metheno)[1,4]oxazino[3,4-i]pyrazolo[4,3-f][1,4,8,10]benzoxatriazacyclotridecin-15(12H)-one], the microsomal CLint (commonly the rate of metabolic loss divided by the concentration) at 1 µM worked out at 11 µL/min/mg in data set [1] (setting [4]); 1.5 µL/min/mg in data set [1] (female, rat, liver microsomes); 8.3 µL/min/mg in data set [1] (human, pooled liver microsomes). For the same compound, in data set [2], the AUC (as a rule, the area under the concentration-time curve, a measure of exposure) stood at 11900 ng·h/mL. The Cmax (in general, the maximum level reached in the sampled fluid or tissue) in data set [2] turned out to be 1750 ng/mL. Moreover, the Tmax (commonly the time from dosing to the highest level) in data set [2] was 2 h. Moreover, the “Tumor growth inhibition (TGI)” value stood at 64% in data set [3] (2 mg/kg BID oral), 120% in data set [3] (5 mg/kg BID oral) and 200% in data set [3] (10 mg/kg BID oral). The body weight entry in data set [3] (2, 5, 10 mg/kg BID) is given as “no body weight loss”. For the same compound, the IC50 (commonly the concentration at which inhibition is half-maximal) against KM12 (TPM3-TRKA) is less than 0.2 nM; at KG-1 cell (OP2-FGFR1) it was 554 nM.

In the case of `O=C1NCC2(CC2)COc2ccc(F)cc2CN2c3nc4c1cnn4cc3OC[C@H]2C(F)F` [Compound 2, (16′S)-16′-(Difluoromethyl)-12′-fluoro-4′H,5′H,6′H,8′H,14′H,16′H,17′H-spiro[cyclopropane-1,7′-[1,19](metheno)[1,4]oxazino[3,4-j]pyrazolo[4,3-g][1,5,9,11]benzoxatriazacyclotetradecin]-4′-one], the microsomal CLint at 1 µM in data set [1] (setting [4]) was found to be 25 µL/min/mg; in data set [1] (female, rat, liver microsomes) it was 3.5 µL/min/mg; in data set [1] (human, pooled liver microsomes) it was 8.8 µL/min/mg. Further, the AUC in data set [2] came out at 14600 ng·h/mL. In addition, the Cmax in data set [2] turned out to be 2510 ng/mL. For the same compound, the Tmax in data set [2] stood at 2 h. The entries for the “Tumor growth inhibition (TGI)” value in data set [3] (3 mg/kg BID oral) and in data set [3] (10 mg/kg BID oral) were 51% and 77%, respectively. Also, in data set [3] (3 and 10 mg/kg BID), the body weight entry is listed as “no body weight loss”. The figures for the IC50 against KM12 (TPM3-TRKA) and against KG-1 cell (OP2-FGFR1) were less than 0.2 nM and 3.8 nM, respectively.

The values are drawn from patent publication US11142533B2, “Macrocycles for use in treating disease” (TURNING POINT THERAPEUTICS, INC., priority 2019, dated 2021).
